{
  "source": "patent US9364414B2",
  "about": "“Method to protect skin from ultraviolet radiation using novel peptides involved in the improvement of microparasol organization in keratinocytes” (ISP Investments Inc., priority 2011, dated 2016)",
  "key": {"[1]": {"tested_on": "dynactin subunit p150Glued", "experiment": "Expression of p150Glued in ex-vivo human skin biopsies (immunostaining)", "format": "cell-based", "conditions": "100 ppm stock diluted at 1%, twice a day, 48 hours", "protocol": "Samples of ex-vivo human skin biopsies from a person, were cultured at the air/liquid interface. The samples were treated twice a day with a stock solution of peptide SEQ ID NO: 7 at 100 ppm, diluted at the 1%, for 48 hours.\nImmunostaining was then performed by means of an antibody directed to p150Glued subunit (REF.Santacruz sc-9804), followed by a secondary antibody, coupled with a green fluorescent marker (REF Invitrogen, A11055). The skin sections were then examined using Nikon® Eclipse 80i microscope.\nQuantification was carried out with VOLOCITY® image analysis software."}, "[2]": {"tested_on": "keratinocytes containing melanosomes (NHK/NHEM co-culture)", "experiment": "Frequency of keratinocytes containing melanosomes in NHK/NHEM co-culture after p150Glued siRNA", "format": "cell-based, human", "conditions": "after 10 nM p150Glued siRNA, 48 hours", "protocol": "Normal human primary keratinocytes (NHK) and normal human epidermal melanocytes (NHEM) were co-cultured (ratio: 1 melanocyte/4 keratinocytes) in Keratinocyte Serum Free Medium (KSFM, GIBCO) supplemented with 50 μg/ml bovine pituitary extract, 5 ng/ml human recombinant EGF (GIBCO) and 100 μg/ml Primocin™ (INVIVOGEN). Cells were maintained at 37° C. in a humidified atmosphere containing 5% CO2.\nNHK and NHEM cells co-seeded for 48 hours were treated, or not, in duplicate, once with 10 nM of p150Glued-specific siRNA.\nCells were then treated, or not, in duplicate, twice a day for 48 hours with a solution of peptide compound SEQ ID NO: 7 at 100 ppm, diluted at 0.5% or 1% before use, without medium change.\nCells were rinsed with PBS and fixed with cold methanol for 4 minutes. Cellular membranes were permeabilized using 0.1% X-100 Triton (Fisher Scientific) for 10 minutes. Unspecific binding sites were blocked, then cells were incubated with the primary antibodies directed to melanosomes (mouse monoclonal anti-“pmel17” Abcam, ab34165 and rabbit monoclonal anti “keratin-14” Abcam, ab51054) diluted in PBS, for 1 hour and a half, under agitation, at room temperature, in a damp room. […]\nThree images per condition were analyzed. […] The frequency of keratinocyte containing melanosomes was evaluated and expressed in percentage. […]"}, "[3]": {"tested_on": "supranuclear organization of melanosomes in ex-vivo skin", "experiment": "Microparasol supranuclear organization in ex-vivo skin (light and electron microscopy)", "format": "cell-based, human", "conditions": "0.5% (light microscopy) or 1% (electron microscopy), 48 hours", "protocol": "6 mm diameter punch biopsies were obtained from a person (light microscopy) and a person (electron microscopy) […]. They were cultivated on culture medium containing 50% of DMEM 1 g/L glucose (Lonza) and 50% of Ham's-F12 (Lonza) supplemented with 10% of FBS (Lonza), 2 mM of L-glutamine (Lonza) and 100 μg/ml of PRIMOCIN™ (InvivoGen). Skin biopsies were maintained at 37° C. in a humidified atmosphere containing 5% of CO2.\nThe stock solution of peptide compound SEQ ID NO: 7 was diluted at 0.5% or 1% before use. The biopsies were treated, or not, in duplicate, twice a day with 0.5% (light microscopy) or 1% (electron microscopy) of peptide compound SEQ ID NO: 7 for 48 hours.\nAfter skin culture, tissues were fixed for 4 hours in buffered 10% formalin. Samples were transferred to baths with ethanol progressively concentrated to remove water, then followed by two baths of xylene to remove the alcohol, and finally embedded in molten paraffin wax. Embedded skin biopsies were then cut with a microtome (Shandon) into 4 μm thick sections and placed on SUPERFROST PLUS™ slides (Thermo Scientific).\nSections were deparaffinized and rehydrated with several successive xylene, alcohol and water baths. Then, 100 μl of Stock solution were added on each section and slides were incubated 10 minutes at 60° C. […]"}, "[4]": {"tested_on": "normal human keratinocytes (NHK)", "experiment": "Comet assay on NHK cells irradiated with UVB", "format": "cell-based", "protocol": "(§1) NHK and NHEM were placed in culture for 24 hours in the presence of a solution of peptide compound SEQ ID NO: 7 at 50 ppm diluted at 1% before use, then irradiated with UVB radiation in an amount of 30 mJ/cm^2 for NHEM and 60 mJ/cm^2 for NHK. A control condition was also used without a peptide active agent. The cells were then detached from their support by trypsin, then centrifuged at 900 rpm for 5 minutes in order to concentrate them and count them.\n(§2) A defined number of cells (25,000 cells) was then embedded in a Low Melting agarose gel at 0.75%, then deposited on a glass slide previously coated with 1% agarose. The slides were then immersed in a lysis solution for 1 hour 30 minutes at 4° C., then in an alkaline solution for 20 minutes at 4° C. The cells were thus lysed and the DNA was denatured. The slides were immersed in an electrophoresis solution before an electric field (20 V-250 mA) is applied. The DNA thus denatured was subjected to migration in the agarose gel at 4° C. The application of a fluorescent DNA dye on the slides (propidium iodide at 2 μg/ml) makes it possible to observe, under the microscope, DNA appearing in the form of comets if it has been damaged.\n(§3) Finally, quantification software makes it possible to determine the Tail Moment, means applied to each condition tested. […]"}, "[5]": {"tested_on": "normal human epidermal melanocytes (NHEM)", "experiment": "Comet assay on NHEM cells irradiated with UVB", "format": "cell-based", "conditions": "peptide 1% (0.5 ppm) 24 hours pretreatment + UVB 30 mJ/cm^2", "protocol": "as §1, §2, §3"}, "[6]": {"tested_on": "cyclobutane pyrimidine dimers (CPDs) in NHEM", "experiment": "Amount of cyclobutane pyrimidine dimers (CPDs) in melanocytes after UVB (immunostaining)", "format": "cell-based, human", "conditions": "UVB 75 mJ/cm^2", "protocol": "DNA damages induced by UVB radiation can be monitored by quantifying the amount of cyclobutane pyrimidine dimers (CPDs), which are formed after conformational changes in the DNA structure. […] The quantification of CPDs was carried out by immunohistochemical assay.\nNHEM (normal human epidermis melanocytes) were grown in Melanocyte Growth Medium (PromoCell) supplemented with 1 ng/ml human basic fibroblast growth factor, 52 μg/ml medium bovine pituitary extract, 0.5 μg/ml hydrocortisone, 5 μg/ml human recombinant insulin, 10 ng/ml phorbol 12-myristate 13-acetate (PMA) and 100 μg/ml of PRIMOCIN (In vivoGen). When the cells were sub-cultured for the experiment, the same medium depleted in PMA was used. Cells were maintained at 37° C. in a humidified atmosphere containing 5% of CO2.\nCells were treated, or not, in duplicate, twice a day for 48 hours with a solution of peptide compound SEQ ID NO: 7 at 100 ppm, diluted at 0.5% or 1% before use. Then, they were irradiated, or not, with a 75 mJ/cm^2 UVB dose using a specific oven to ensure the homogeneity of the treatment. […]\nThree images per condition were analyzed. Each picture was converted in grey levels and analyzed with Image-Pro Analyzer 6.3 software (MediaCybernetics, Inc.) which generated a histogram representing the number of pixels per intensity. The sum of all intensities was calculated. […]"}},
  "note": "Ends that are not written are not given here.",
  "data": [
    {"substance": "Asp-Leu-Lys-Lys-NH2 (DLKK-NH2) [SEQ ID NO: 7]", "values": [
      {"measurement": "increase of the dynactin subunit p150Glued staining", "setting": "[1]", "value": 80, "unit": "%"},
      {"measurement": "frequency of keratinocyte containing melanosomes compared to the control", "setting": "[2]; peptide 0.5% (0.5 ppm)", "value": "partially restored"},
      {"measurement": "frequency of keratinocyte containing melanosomes compared to the control", "setting": "[2]; peptide 1% (1 ppm)", "value": "fully restored"},
      {"measurement": "supranuclear organization of melanosomes above the nucleus", "setting": "[3]", "value": "better supranuclear organization of melanosomes"},
      {"measurement": "reduction in Tail Moment versus UVB condition", "setting": "[4]; peptide 1% (0.5 ppm) 24 hours pretreatment + UVB 60 mJ/cm^2", "value": 70, "unit": "%"},
      {"measurement": "Tail Moment", "setting": "[4]; peptide 1% (0.5 ppm) 24 hours pretreatment + UVB 60 mJ/cm^2, UVB alone 170.27, control 1.66", "value": 51.36},
      {"measurement": "reduction in Tail Moment versus UVB condition", "setting": "[5]", "value": 55, "unit": "%"},
      {"measurement": "change of CPDs after UVB compared to the non treated condition", "setting": "[6]; pretreated 48 hours with 0.5% (0.5 ppm)", "value": "−39", "unit": "%"},
      {"measurement": "change of CPDs after UVB compared to the non treated condition", "setting": "[6]; pretreated 48 hours with 1% (1 ppm)", "value": "−59", "unit": "%"}
    ]}
  ]
}
